Assay results reported in patent US11179397B2, “Imidazopyrimidine derivatives” (Gilead Sciences, Inc., priority 2018, dated 2021).

Columns and labels:
[1] = tested on: NCI-H358 cells; experiment: NCI-H358 3D tumor spheroid growth inhibition; assay type: cell-based; conditions: Homo sapiens, NCI-H358, 168 h, 3D spheroids, 7 days, 3D CellTiter Glo; cellular IC50 designated EC50; read-out: H358 EC50
In short: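 Cells seeded at 1000/well in ultra-low-attachment plates at 37 °C, 5% CO2 to form spheroids, then incubated a further 7 days with compounds. Viability by 3D CellTiter Glo luminescence; % inhibition versus DMSO wells, with normalized cellular IC50 reported as EC50.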

[2] = biological target: SHP-2 full length protein (Homo sapiens (Human), UniProt Q06124); experiment: SHP-2 biochemical DiFMUP pseudosubstrate-fluorogenic assay; conditions: 0.2 nM SHP-2, 1 μM IRS-1 activator peptide, 50 μM DiFMUP; read-out: SHP2 IC50
In short: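 In-house recombinant full-length SHP-2 preincubated 90 min at room temperature with compounds (1:3 series, 10,000–0.005 nM), then DiFMUP substrate added at 50 μM final for 30 min more. Fluorescence normalised to DMSO wells (100%) and IC50 derived by curve fitting.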

| Structure (SMILES) | EC50 [1] | IC50 [2] |
| --- | --- | --- |
| N[C@@H]1c2ccccc2CC12CCN(c1ncc(Sc3ccnc4cccnc34)c3nccn13)CC2 [Example 144, (S)-1′-(8-((1,5-naphthyridin-4-yl)thio)imidazo[1,2-c]pyrimidin-5-yl)-1,3-dihydrospiro[indene-2,4′-piperidin]-1-amine] | 4.4 nM | 3.6 nM |
| N[C@@H]1c2ccccc2CC12CCN(c1ncc(Sc3ccnc4ccccc34)c3nccn13)CC2 [Example 145] | 20 nM | 2.8 nM |
| Nc1nccc(Sc2cnc(N3CCC4(CC3)Cc3ncccc3[C@H]4N)n3ccnc23)c1Cl [Example 147, (S)-1′-(8-((2-amino-3-chloropyridin-4-yl)thio)imidazo[1,2-c]pyrimidin-5-yl)-5,7-dihydrospiro[cyclopenta[b]pyridine-6,4′-piperidin]-5-amine] | 5.5 nM | 4.8 nM |

More lines, now with the values ahead:

| EC50 [1] | IC50 [2] | Structure (SMILES) |
| --- | --- | --- |
| 15 nM | 1.7 nM | N[C@@H]1c2cccnc2CC12CCN(c1ncc(Sc3cccc(Cl)c3Cl)c3nccn13)CC2 [Example 146, (S)-1′-(8-((2,3-dichlorophenyl)thio)imidazo[1,2-c]pyrimidin-5-yl)-5,7-dihydrospiro[cyclopenta[b]pyridine-6,4′-piperidin]-5-amine] |
| 132 nM | 41 nM | N[C@H]1c2cccnc2CC12CCN(c1ncc(Sc3cccc(Cl)c3Cl)c3nccn13)CC2 [Example 148, (R)-1′-(8-((2,3-dichlorophenyl)thio)imidazo[1,2-c]pyrimidin-5-yl)-5,7-dihydrospiro[cyclopenta[b]pyridine-6,4′-piperidin]-5-amine] |
| 101 nM | 75 nM | Nc1nccc(Sc2cnc(N3CCC4(CC3)Cc3ncccc3[C@@H]4N)n3ccnc23)c1Cl [Example 149, (R)-1′-(8-((2-amino-3-chloropyridin-4-yl)thio)imidazo[1,2-c]pyrimidin-5-yl)-5,7-dihydrospiro[cyclopenta[b]pyridine-6,4′-piperidin]-5-amine] |
